Columns and labels:
[1] = test system: Smad2; assay: Smad2 phosphorylation (western blot) in HFL1 cells; format: cell-based, human; conditions: for phosphorylation level of Smad2 (ROCK pathway): Y27632 20 μM, Cytochalasin B 2 μM; for phosphorylation level of Smad2 (ROCK pathway) / phosphorylation level of Smad2 due to TGFβ1 treatment (PKC inhibitors): TGFβ1 10 ng/mL; for phosphorylation level of Smad2 due to TGFβ1 treatment (PKC inhibitors): GF109203X 10 μM, Rottlerin 1 μM
Method: HFL1 cells were inoculated onto a six-well plate by 1.0×10^5 cells/well, and then cultured in 2.0 mL of DMEM containing 10% FBS, to achieve 70% confluence. The cells were washed using Hanks' balanced salt solution (HBSS) containing 0.1% bovine serum albumin (BSA) (4.2 mM NaHCO3, 137 mM NaCl, 5.36 mM KCl, 0.4 mM MgSO4.7H2O, 0.34 mM Na2HPO4.12H2O, 5.55 mM glucose, 0.44 mM KH2PO4, 0.72 mM CaCl2.H2O, pH=7.4), and then cultured in a DMEM containing 0.1% BSA for 48 hours without serum.
Thereafter, the medium was replaced by a DMEM containing 0.1% BSA, and stimulation was given for a specified period using each reagent (each inhibitor was applied 30 minutes before the stimulant), after which the cells were collected on ice using 100 μL of RIPA buffer (150 mM NaCl, 50 mM Tris-HCl, 5 mM EDTA, 5 mM NaF, 10 mM sodium pyrophosphate dibasic, 1% Nonidet P-40, 0.1% sodium dodecyl sulfate, 0.5% sodium deoxycholate, pH 8.0) containing 10 μg/mL aprotinin, 10 μg/mL leupeptin, and phenyl methyl sulfonyl fluoride (PMSF) as a protease inhibitor.
The cells were crushed according to the vortex method, centrifuged under the conditions of 15000 rpm and 4° C. for 30 minutes, and the supernatant was taken as a sample. Quantitative determination of protein was performed according to the Bradford method, and a specified amount of protein was separated by SDS-polyacrylic amide gel electrophoresis. The protein was transferred onto a polyvinylidene difluoride (PVDF) film, blocked for 1 hour at room temperature, with a primary antibody applied overnight at 4° C., and a secondary antibody applied for 1 hour at room temperature.
Thereafter, the PVDF film was soaked in an ECL solution and fluorometric detection was performed using an image capture/analysis system (ChemiDocMP System manufactured by Bio-Rad). The detected bands were converted to numerical values using image processing software (ImageJ).

[2] = test system: αSMA; assay: αSMA expression (western blot) in TGFβ1-stimulated HFL1 cells; format: cell-based, human; conditions: for increase in the αSMA expression level due to TGFβ1 (PKC inhibitors): GF109203X 10 μM, Rottlerin 1 μM, GO06976 0.5 μM and 1.0 μM, 30 minutes before TGFβ1 10 ng/mL; for αSMA expression level recovered, relative to the level when TGFβ1 alone was applied: used together with PPMP (3 μM), lactosylceramide 10 μM
Method: Human pulmonary fibroblast (HFL1) (ATCC CCL-153) cells were cultured under the conditions of 95% air-5% CO2 and 37° C., using a Dulbecco's Modified Eagle Medium (DMEM) containing 10% fetal bovine serum (FBS), 100 μg/mL streptomycin, and 66.7 μg/mL penicillin.
How an increase in lactosylceramide synthesis activity due to TGFβ1 affects the fibrosing of tissues was examined based on the expression level of αSMA, which is a fibrosing marker protein.

[3] = test system: Smad2; assay: Smad2 nuclear localization (immunofluorescent staining, confocal) in HFL1 cells; format: cell-based, human; conditions: TGFβ1 10 ng/mL; for nuclear localization of Smad2 due to TGFβ1 (PKC inhibitors): GF109203X 10 μM, Rottlerin 1 μM, GO06976 1 μM
Method: For immunostaining of Smad and phosphorylated Smad, ribonuclease A (RNase, Worthington Biochemical) (200 μg/mL, room temperature, 30 minutes) and propidium iodide (PI, Cayman Chemical) (20 μg/mL, room temperature, 30 minutes) were applied to stain the nucleus, and the stained images were observed using a confocal microscope (FV500 manufactured by Olympus).
When localization of Smad2/3 was observed, on the other hand, Smad2/3 accumulated in the nucleus in 3 hours after the single stimulation of TGFβ1 (10 ng/mL).

[4] = test system: PKCδ; assay: Translocation of PKCδ into the cellular membrane in HFL1 cells; format: cell-based, human
Method: HFL1 cells were inoculated onto a 3.5-cm glass-bottom dish by 1.0×10^4 cells/dish, and then cultured in 2.0 mL of DMEM containing 10% FBS, to achieve 70% confluence. The cells were washed in HBSS containing 0.1% BSA, and then cultured in DMEM containing 0.1% BSA for 48 hours without serum.
Thereafter, the medium was replaced by a DMEM containing 0.1% BSA, and stimulation was given for a specified period using each reagent (each inhibitor was applied 30 minutes before the stimulant), after which each sample was fixed with 4% paraformaldehyde (PFA) at 4° C. for 15 minutes. Thereafter, as deemed appropriate, the sample was permeabilized (0.3% saponin, room temperature, 1 hour) and blocked (3% BSA, room temperature, 1 hour), with a primary antibody applied overnight at 4° C., and a secondary antibody applied for 1 hour at room temperature. For immunostaining of Smad and phosphorylated Smad, ribonuclease A (RNase, Worthington Biochemical) (200 μg/mL, room temperature, 30 minutes) and propidium iodide (PI, Cayman Chemical) (20 μg/mL, room temperature, 30 minutes) were applied to stain the nucleus, and the stained images were observed using a confocal microscope (FV500 manufactured by Olympus).
In general, activation of PKC is observed in the form of its translocation into the cellular membrane; accordingly, involvement of lactosylceramide was examined using the translocation of PKCδ into the cellular membrane as an indicator.

[5] = test system: idiopathic pulmonary fibrosis; conditions: patients suffering from idiopathic pulmonary fibrosis; Non-patent Literature 2; cited from earlier work

Compound: C=C1[C@@H](C)[C@H]2[C@H](Cc3ccccc3)NC(=O)[C@]23OC(=O)/C=C/[C@H](O)CCC[C@@H](C)C/C=C/[C@H]3[C@@H]1O [Cytochalasin B]
- phosphorylation level of Smad2 (ROCK pathway) [1]: the phosphorylation level did not change

Compound: CN(C)CCCn1cc(C2=C(c3c[nH]c4ccccc34)C(=O)NC2=O)c2ccccc21 [GF109203X]
- increase in the αSMA expression level due to TGFβ1 (PKC inhibitors) [2]: suppressed significantly
- phosphorylation level of Smad2 due to TGFβ1 treatment (PKC inhibitors) [1]: no change was observed
- nuclear localization of Smad2 due to TGFβ1 (PKC inhibitors) [3]: suppressed significantly

Compound: Cn1c2ccccc2c2c3c(c4c5ccccc5n(CCC#N)c4c21)CNC3=O [GO06976]
- increase in the αSMA expression level due to TGFβ1 (PKC inhibitors) [2]: did not suppress the increase in the αSMA expression level
- nuclear localization of Smad2 due to TGFβ1 (PKC inhibitors) [3]: did not change

Compound: CCCCCCCCCCCCCC(=O)O[C@@H]1[C@@H](C)[C@@]2(O)[C@@H](C=C(CO)C[C@]3(O)C(=O)C(C)=C[C@@H]23)[C@@H]2C(C)(C)[C@]12OC(C)=O [PMA, phorbol myristate acetate]
- increase in the αSMA expression level due to TGFβ1 (PKC down-regulation) ([2]; PMA 100 nM overnight treatment, TGFβ1 10 ng/mL): suppressed the increase in the αSMA expression level

Compound: CC(=O)c1c(O)c(C)c(O)c(Cc2c(O)c3c(c(C(=O)/C=C/c4ccccc4)c2O)OC(C)(C)C=C3)c1O [Rottlerin]
- translocation of PKCδ into the cellular membrane due to TGFβ1 ([4]; PPMP 3 μM, Rottlerin 1 μM applied beforehand, two hours after TGFβ1 10 ng/mL): translocation of PKCδ into the cellular membrane was suppressed
- increase in the αSMA expression level due to TGFβ1 (PKC inhibitors) [2]: suppressed significantly
- phosphorylation level of Smad2 due to TGFβ1 treatment (PKC inhibitors) [1]: no change was observed
- nuclear localization of Smad2 due to TGFβ1 (PKC inhibitors) [3]: suppressed significantly

Compound: C[C@@H](N)[C@H]1CC[C@H](C(=O)Nc2ccncc2)CC1 [Y27632]
- phosphorylation level of Smad2 (ROCK pathway) [1]: the phosphorylation level did not change

Compound: COC(=O)c1ccc2c(c1)NC(=O)/C2=C(\Nc1ccc(N(C)C(=O)CN2CCN(C)CC2)cc1)c1ccccc1 [nintedanib]
- forced vital capacities of patients [5]: improve the forced vital capacities
- survival periods of patients [5]: cannot extend the survival periods

Compound: Cc1ccc(=O)n(-c2ccccc2)c1 [pirfenidone]
- forced vital capacities of patients [5]: improve the forced vital capacities
- survival periods of patients [5]: cannot extend the survival periods

Compound: glucosylceramide
- αSMA expression level recovered, relative to the level when TGFβ1 alone was applied ([2]; TGFβ1 10 ng/mL): approx. 80%

Compound: lactosylceramide
- time the localization of PKCδ on the cellular membrane was sustained ([4]; lactosylceramide 10 μM alone): at least 30 minutes
- translocation of PKCδ into the cellular membrane by the substance alone ([4]; lactosylceramide 10 μM alone, five minutes after the stimulation): translocation of PKCδ into the cellular membrane was observed
- recovery of the αSMA expression level suppression action ([2]; lactosylceramide 10 μM in combined use with PPMP or NB-DNJ, TGFβ1 10 ng/mL): led to a recovery of the αSMA expression level suppression action
- αSMA expression level recovered, relative to the level when TGFβ1 alone was applied ([2]; TGFβ1 10 ng/mL): approx. 95%
- phosphorylation of Smad2 by the substance alone ([1]; lactosylceramide 10 μM alone, no TGFβ1): did not cause phosphorylation of Smad2
- accumulation of Smad2 in the nucleus, combined use with PPMP ([3]; lactosylceramide 10 μM combined with PPMP): led to a recovery of the suppression action due to PPMP, and Smad2 accumulated in the nucleus

— patent publication US20200061038A1, “THERAPEUTIC AGENT FOR FIBROSIS AND INHIBITOR OF NUCLEAR TRANSLOCATION OF PHOSPHORYLATED SMAD” (NATIONAL UNIVERSITY CORPORATION CHIBA UNIVERSITY, priority 2016, published 2020)
